“Also recorded” adds a separate entry of the source.
Key:
[1] = system: total viable cells (totalViableCells); assay: MLTA, total live cells concentration-response; assay type: cell-based; conditions: Homo sapiens, 144 h, 6 days, normalized to vehicle control, read-out: total_live normalized cell count
Procedure, shortened: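 Freeze-thawed primary human bone marrow CD34+ cells in SFEM II with cytokine cocktail, drug added day 0, 6 days at 37°C, 5% CO2. Live/dead counts by 17-parameter flow cytometry with DAPI exclusion, bead-normalized, volume-corrected to cells/mL. Normalized per donor to mean of six vehicle wells; 2–7 donors pooled.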

[2] = system: neutrophils (neutrophil-lin); assay: MLTA, Neut: concentration-response and QSP model fit; assay type: cell-based, human; conditions: Homo sapiens, Neutrophil, 144 h
Procedure, shortened: (§1)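 Drug was added at time 0 to thawed human bone marrow CD34+ cells in SFEM II plus a cytokine cocktail. After 6 days at 37°C, subsets were counted by surface-marker flow with TruCount beads. Vehicle-normalized, donor-pooled data then fed an Emax model separating anti-proliferative from cell-killing effects.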

[3] = system: late erythroid cells (Eryth II); assay: MLTA, ErythII: concentration-response and QSP model fit; assay type: cell-based, human; conditions: Homo sapiens, 144 h
Procedure, shortened: as §1

[4] = system: early erythroid cells (Eryth I); assay: MLTA, ErythI: concentration-response and QSP model fit; assay type: cell-based, human; conditions: Homo sapiens, 144 h
Procedure, shortened: (§2)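 Six-day flow cytometry counts, bead-normalized and expressed relative to the mean of six vehicle wells, underlie each value. Cells were primary human bone marrow CD34+ cells cultured in SFEM II with cytokines promoting multi-lineage differentiation and self-renewal.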

[5] = system: human bone marrow-derived CD34+ cells differentiated into multiple hematopoietic lineages; assay: MLTA, overall effects across hematopoietic lineages; assay type: cell-based; conditions: 0.2-2500 nM, 6 days, relative to vehicle control
Procedure, shortened: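 Thawed primary human bone marrow CD34+ cells grown in SFEM II with a multi-lineage cytokine cocktail, drug added day 0, 6 days at 37°C, 5% CO2. Subsets counted by 17-parameter flow cytometry with TruCount beads, normalized to six vehicle wells per donor (2–7 donors); Emax model fitted per cell type.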

[6] = system: granulocyte progenitor (Gran-lin prog); assay: MLTA, GranP: concentration-response and QSP model fit; assay type: cell-based, human; conditions: Homo sapiens, 144 h
Procedure, shortened: as §2

[7] = system: multi-potent progenitors (MPPs); assay: MLTA, MPPs: concentration-response and QSP model fit; assay type: cell-based, human; conditions: Homo sapiens, 144 h
Procedure, shortened: as §1

[8] = system: monocyte progenitors (monocyte prog); assay: MLTA, MonoP: concentration-response and QSP model fit; assay type: cell-based, human; conditions: Homo sapiens, Monocyte, 144 h
Procedure, shortened: as §2

EC50 ([2]; QSP model fit of 6-day MLTA data): 132 nM
EC50 ([3]; QSP model fit of 6-day MLTA data, read-out: EC50ErythII): 191 nM
EC50 ([6]; QSP model fit of 6-day MLTA data, read-out: EC50GranP): 93 nM
EC50 ([8]; QSP model fit of 6-day MLTA data, read-out: EC50MonoP): 117 nM
SMILES: CS(=O)(=O)N1CCN(Cc2cc3nc(-c4cccc5[nH]ncc45)nc(N4CCOCC4)c3s2)CC1 [pictilisib]
viability at 0.0002 µM ([1]; dose 0.2 nM): 97.8%
viability at 0.001 µM ([1]; dose 1 nM): 96.4%
viability at 0.005 µM ([1]; dose 5 nM): 91.2%
viability at 0.025 µM ([1]; dose 25 nM): 84%
viability at 0.1 µM ([1]; dose 100 nM): 60.1%
viability at 0.5 µM ([1]; dose 500 nM): 33.9%
viability at 2.5 µM ([1]; dose 2500 nM): 12.9%
activity at 0.0002 µM ([2]; dose 0.2 nM, 6 days, normalized to vehicle control, read-out: Neut normalized cell count): 92.7%
activity at 0.001 µM ([2]; dose 1 nM, 6 days, normalized to vehicle control, read-out: Neut normalized cell count): 82.6%
activity at 0.005 µM ([2]; dose 5 nM, 6 days, normalized to vehicle control, read-out: Neut normalized cell count): 64.5%
activity at 0.025 µM ([2]; dose 25 nM, 6 days, normalized to vehicle control, read-out: Neut normalized cell count): 59.8%
activity at 0.1 µM ([2]; dose 100 nM, 6 days, normalized to vehicle control, read-out: Neut normalized cell count): 30.4%
activity at 0.5 µM ([2]; dose 500 nM, 6 days, normalized to vehicle control, read-out: Neut normalized cell count): 6.17%
activity at 2.5 µM ([2]; dose 2500 nM, 6 days, normalized to vehicle control, read-out: Neut normalized cell count): 0.529%
Emax ([2]; parameter from QSP model fitting, read-out: Emax_drug_Neut): 16.5%
activity at 0.0002 µM ([3]; dose 0.2 nM, 6 days, normalized to vehicle control, read-out: ErythII normalized cell count): 94.6%
activity at 0.001 µM ([3]; dose 1 nM, 6 days, normalized to vehicle control, read-out: ErythII normalized cell count): 92%
activity at 0.005 µM ([3]; dose 5 nM, 6 days, normalized to vehicle control, read-out: ErythII normalized cell count): 90%
activity at 0.025 µM ([3]; dose 25 nM, 6 days, normalized to vehicle control, read-out: ErythII normalized cell count): 86.7%
activity at 0.1 µM ([3]; dose 100 nM, 6 days, normalized to vehicle control, read-out: ErythII normalized cell count): 55.5%
activity at 0.5 µM ([3]; dose 500 nM, 6 days, normalized to vehicle control, read-out: ErythII normalized cell count): 23.3%
activity at 2.5 µM ([3]; dose 2500 nM, 6 days, normalized to vehicle control, read-out: ErythII normalized cell count): 5.88%
Emax ([3]; parameter from QSP model fitting, read-out: Emax_drug_ErythroidII): 13.6%
activity at 0.0002 µM ([4]; dose 0.2 nM, 6 days, normalized to vehicle control, read-out: ErythI normalized cell count): 110%
activity at 0.001 µM ([4]; dose 1 nM, 6 days, normalized to vehicle control, read-out: ErythI normalized cell count): 107%
activity at 0.005 µM ([4]; dose 5 nM, 6 days, normalized to vehicle control, read-out: ErythI normalized cell count): 107%
activity at 0.025 µM ([4]; dose 25 nM, 6 days, normalized to vehicle control, read-out: ErythI normalized cell count): 100%
activity at 0.1 µM ([4]; dose 100 nM, 6 days, normalized to vehicle control, read-out: ErythI normalized cell count): 92.8%
activity at 0.5 µM ([4]; dose 500 nM, 6 days, normalized to vehicle control, read-out: ErythI normalized cell count): 65.5%
activity at 2.5 µM ([4]; dose 2500 nM, 6 days, normalized to vehicle control, read-out: ErythI normalized cell count): 27.5%
Emax ([4]; parameter from QSP model fitting, read-out: Emax_drug_ErythroidI): 0.03%
effect on hematopoietic cell numbers across cell types [5]: moderate reduction of cells types; also recorded: decreased most cell types
activity at 0.0002 µM ([6]; dose 0.2 nM, 6 days, normalized to vehicle control, read-out: GranPs normalized cell count): 95.5%
activity at 0.001 µM ([6]; dose 1 nM, 6 days, normalized to vehicle control, read-out: GranPs normalized cell count): 100%
activity at 0.005 µM ([6]; dose 5 nM, 6 days, normalized to vehicle control, read-out: GranPs normalized cell count): 101%
activity at 0.025 µM ([6]; dose 25 nM, 6 days, normalized to vehicle control, read-out: GranPs normalized cell count): 84%
activity at 0.1 µM ([6]; dose 100 nM, 6 days, normalized to vehicle control, read-out: GranPs normalized cell count): 70.2%
activity at 0.5 µM ([6]; dose 500 nM, 6 days, normalized to vehicle control, read-out: GranPs normalized cell count): 60.8%
activity at 2.5 µM ([6]; dose 2500 nM, 6 days, normalized to vehicle control, read-out: GranPs normalized cell count): 28.4%
Emax ([6]; parameter from QSP model fitting, read-out: Emax_drug_GranP): 60.5%
activity at 0.0002 µM ([7]; dose 0.2 nM, 6 days, normalized to vehicle control, read-out: MPPs normalized cell count): 89.3%
activity at 0.001 µM ([7]; dose 1 nM, 6 days, normalized to vehicle control, read-out: MPPs normalized cell count): 82.2%
activity at 0.005 µM ([7]; dose 5 nM, 6 days, normalized to vehicle control, read-out: MPPs normalized cell count): 71.7%
activity at 0.025 µM ([7]; dose 25 nM, 6 days, normalized to vehicle control, read-out: MPPs normalized cell count): 67.2%
activity at 0.1 µM ([7]; dose 100 nM, 6 days, normalized to vehicle control, read-out: MPPs normalized cell count): 49.1%
activity at 0.5 µM ([7]; dose 500 nM, 6 days, normalized to vehicle control, read-out: MPPs normalized cell count): 38.2%
activity at 2.5 µM ([7]; dose 2500 nM, 6 days, normalized to vehicle control, read-out: MPPs normalized cell count): 28%
Emax ([7]; parameter from QSP model fitting, read-out: Emax_drug_MPP): 0.03%
activity at 0.0002 µM ([8]; dose 0.2 nM, 6 days, normalized to vehicle control, read-out: MonoPs normalized cell count): 105%
activity at 0.001 µM ([8]; dose 1 nM, 6 days, normalized to vehicle control, read-out: MonoPs normalized cell count): 94.3%
activity at 0.005 µM ([8]; dose 5 nM, 6 days, normalized to vehicle control, read-out: MonoPs normalized cell count): 87.2%
activity at 0.025 µM ([8]; dose 25 nM, 6 days, normalized to vehicle control, read-out: MonoPs normalized cell count): 74.8%
activity at 0.1 µM ([8]; dose 100 nM, 6 days, normalized to vehicle control, read-out: MonoPs normalized cell count): 49%
activity at 0.5 µM ([8]; dose 500 nM, 6 days, normalized to vehicle control, read-out: MonoPs normalized cell count): 30.2%
activity at 2.5 µM ([8]; dose 2500 nM, 6 days, normalized to vehicle control, read-out: MonoPs normalized cell count): 11.3%
Emax ([8]; parameter from QSP model fitting, read-out: Emax_drug_MonoP): 140%
